According to ChEMBL document CHEMBL3885861, “Open TG-GATES”:

Species on record: Rattus norvegicus
Assay: Open TG-GATES - Regimen: Single
Assay type: toxicity, organism-based, Sprague-Dawley
Design: regimen Single, gender Male, age 6 weeks
Conditions: in vivo, po, route gavage; for APTT / Bas / Eos / Fbg / Hb / Ht / Lym / MCH / MCHC / MCV / Mono / Neu / PT / Plat / RBC / Ret / WBC: tissue Blood; for KIDNEY_L / KIDNEY_R / KIDNEY_TOTAL: tissue Kidney; for LIVER: tissue Liver; for A/G / ALP / ALT / AST / BUN / CRE / Ca / Cl / DBIL / GLC / IP / K / LDH / Na / PL / RALB / TBIL / TC / TG / TP / gamma-GTP: tissue Plasma
[1] = 0 mg/kg, 3 h, dose level Control
[2] = 0 mg/kg, 6 h, dose level Control
[3] = 0 mg/kg, 9 h, dose level Control
[4] = 0 mg/kg, 24 h, dose level Control
[5] = 100 mg/kg, 24 h, dose level Low

## O=C(O)COc1nn(Cc2ccccc2)c2ccccc12 [BENDAZAC]
[1]
  TERMINAL_BW: 211 g
  APTT: 17.2 s
  Bas: 0%
  Eos: 0.8%
  Fbg: 208.8 mg/dL
  Hb: 13.6 g/dL
  Ht: 40.7%
  Lym: 77.2%
  MCH: 21.7 pg
  MCHC: 33.3%
  MCV: 65.1 fL
  Mono: 10.4%
  Neu: 12%
  PT: 11.2 s
  Plat: 119 x10_4/uL
  RBC: 625 x10_4/ul
  Ret: 8.9%
  WBC: 108.6 x10_2/uL
  KIDNEY_L: 0.9 g
  KIDNEY_R: 1 g
  KIDNEY_TOTAL: 1.9 g
  LIVER: 10 g
  A/G: 2.2
  ALP: 955 IU/L
  ALT: 37.2 IU/L
  AST: 65.8 IU/L
  BUN: 12.4 mg/dL
  CRE: 0.5 mg/dL
  Ca: 10.9 mg/dL
  Cl: 103.8 meq/L
  DBIL: 0.008 mg/dL
  GLC: 199.4 mg/dL
  IP: 8.2 mg/dL
  K: 4.5 meq/L
  LDH: 89.4 IU/L
  Na: 139.8 meq/L
  PL: 145.4 mg/dL
  RALB: 3.7 g/dL
  TBIL: 0.3 mg/dL
  TC: 81 mg/dL
  TG: 67 mg/dL
  TP: 5.4 g/dL
  gamma-GTP: 1 IU/L
[2]
  TERMINAL_BW: 209.6 g
  APTT: 17.5 s
  Bas: 0%
  Eos: 0.8%
  Fbg: 200.2 mg/dL
  Hb: 13.9 g/dL
  Ht: 41.5%
  Lym: 77.2%
  MCH: 21.6 pg
  MCHC: 33.4%
  MCV: 64.7 fL
  Mono: 8.4%
  Neu: 13.4%
  PT: 11.7 s
  Plat: 123 x10_4/uL
  RBC: 642.4 x10_4/ul
  Ret: 10%
  WBC: 96.6 x10_2/uL
  KIDNEY_L: 1 g
  KIDNEY_R: 1 g
  KIDNEY_TOTAL: 2 g
  LIVER: 9.4 g
  A/G: 2.2
  ALP: 801.4 IU/L
  ALT: 33.2 IU/L
  AST: 59.8 IU/L
  BUN: 11.6 mg/dL
  CRE: 0.5 mg/dL
  Ca: 10.7 mg/dL
  Cl: 105.6 meq/L
  DBIL: 0.054 mg/dL
  GLC: 186.8 mg/dL
  IP: 9.6 mg/dL
  K: 4.8 meq/L
  LDH: 75.2 IU/L
  Na: 140.8 meq/L
  PL: 135.6 mg/dL
  RALB: 3.6 g/dL
  TBIL: 0.5 mg/dL
  TC: 72.6 mg/dL
  TG: 75.8 mg/dL
  TP: 5.2 g/dL
  gamma-GTP: 2 IU/L
[3]
  TERMINAL_BW: 211.9 g
  APTT: 16.6 s
  Bas: 0%
  Eos: 1.2%
  Fbg: 206.4 mg/dL
  Hb: 13.5 g/dL
  Ht: 40.3%
  Lym: 76.8%
  MCH: 22 pg
  MCHC: 33.5%
  MCV: 65.8 fL
  Mono: 9.6%
  Neu: 12.8%
  PT: 11.8 s
  Plat: 107.3 x10_4/uL
  RBC: 613.4 x10_4/ul
  Ret: 10.7%
  WBC: 98.1 x10_2/uL
  KIDNEY_L: 1 g
  KIDNEY_R: 1 g
  KIDNEY_TOTAL: 2 g
  LIVER: 9 g
  A/G: 2.1
  ALP: 700.2 IU/L
  ALT: 30 IU/L
  AST: 64.4 IU/L
  BUN: 10.8 mg/dL
  CRE: 0.6 mg/dL
  Ca: 10.6 mg/dL
  Cl: 106 meq/L
  DBIL: 0.056 mg/dL
  GLC: 197.2 mg/dL
  IP: 9.9 mg/dL
  K: 4.6 meq/L
  LDH: 75 IU/L
  Na: 143 meq/L
  PL: 134.4 mg/dL
  RALB: 3.7 g/dL
  TBIL: 0.4 mg/dL
  TC: 73.4 mg/dL
  TG: 44.2 mg/dL
  TP: 5.5 g/dL
  gamma-GTP: 1.8 IU/L
[4]
  TERMINAL_BW: 229.7 g
  APTT: 17 s
  Bas: 0%
  Eos: 1%
  Fbg: 210.8 mg/dL
  Hb: 13.5 g/dL
  Ht: 39.7%
  Lym: 77.2%
  MCH: 22.2 pg
  MCHC: 34%
  MCV: 65.2 fL
  Mono: 9.6%
  Neu: 12.4%
  PT: 12 s
  Plat: 125.1 x10_4/uL
  RBC: 609.6 x10_4/ul
  Ret: 9.8%
  WBC: 103.2 x10_2/uL
  KIDNEY_L: 1 g
  KIDNEY_R: 1 g
  KIDNEY_TOTAL: 2 g
  LIVER: 10.7 g
  A/G: 2
  ALP: 978 IU/L
  ALT: 39.8 IU/L
  AST: 67.2 IU/L
  BUN: 17.8 mg/dL
  CRE: 0.6 mg/dL
  Ca: 11 mg/dL
  Cl: 104.6 meq/L
  DBIL: 0.006 mg/dL
  GLC: 194.2 mg/dL
  IP: 7.9 mg/dL
  K: 4.8 meq/L
  LDH: 80.6 IU/L
  Na: 140.4 meq/L
  PL: 144.6 mg/dL
  RALB: 3.7 g/dL
  TBIL: 0.3 mg/dL
  TC: 77.2 mg/dL
  TG: 102 mg/dL
  TP: 5.6 g/dL
  gamma-GTP: 1.2 IU/L
100 mg/kg, 3 h, dose level Low
  TERMINAL_BW: 207.2 g
  APTT: 16.8 s
  Bas: 0%
  Eos: 1%
  Fbg: 209.6 mg/dL
  Hb: 14 g/dL
  Ht: 42.1%
  Lym: 80.8%
  MCH: 21.8 pg
  MCHC: 33.4%
  MCV: 65.2 fL
  Mono: 7.2%
  Neu: 11.6%
  PT: 11.3 s
  Plat: 131.9 x10_4/uL
  RBC: 644.8 x10_4/ul
  Ret: 9.1%
  WBC: 111.8 x10_2/uL
  KIDNEY_L: 1 g
  KIDNEY_R: 1 g
  KIDNEY_TOTAL: 1.9 g
  LIVER: 9.9 g
  A/G: 2.1
  ALP: 1620.8 IU/L
  ALT: 35.8 IU/L
  AST: 68 IU/L
  BUN: 12.8 mg/dL
  CRE: 0.6 mg/dL
  Ca: 10.9 mg/dL
  Cl: 102 meq/L
  DBIL: 0.008 mg/dL
  GLC: 196.8 mg/dL
  IP: 9.2 mg/dL
  K: 4.6 meq/L
  LDH: 93.2 IU/L
  Na: 140.2 meq/L
  PL: 130.2 mg/dL
  RALB: 3.7 g/dL
  TBIL: 1.4 mg/dL
  TC: 73.6 mg/dL
  TG: 56.2 mg/dL
  TP: 5.4 g/dL
  gamma-GTP: 1.4 IU/L
100 mg/kg, 6 h, dose level Low
  TERMINAL_BW: 207.8 g
  APTT: 16.4 s
  Bas: 0%
  Eos: 1%
  Fbg: 202.2 mg/dL
  Hb: 13.9 g/dL
  Ht: 41.6%
  Lym: 79.4%
  MCH: 21.6 pg
  MCHC: 33.4%
  MCV: 64.9 fL
  Mono: 8.8%
  Neu: 11.2%
  PT: 12 s
  Plat: 113.2 x10_4/uL
  RBC: 641.8 x10_4/ul
  Ret: 10.5%
  WBC: 96.2 x10_2/uL
  KIDNEY_L: 1 g
  KIDNEY_R: 1 g
  KIDNEY_TOTAL: 2 g
  LIVER: 9.2 g
  A/G: 2.3
  ALP: 1175.6 IU/L
  ALT: 35.2 IU/L
  AST: 66 IU/L
  BUN: 13 mg/dL
  CRE: 0.6 mg/dL
  Ca: 10.8 mg/dL
  Cl: 103.4 meq/L
  DBIL: 0.09 mg/dL
  GLC: 183.8 mg/dL
  IP: 10.7 mg/dL
  K: 4.8 meq/L
  LDH: 90.6 IU/L
  Na: 140.2 meq/L
  PL: 126 mg/dL
  RALB: 3.7 g/dL
  TBIL: 1.2 mg/dL
  TC: 70.8 mg/dL
  TG: 41.4 mg/dL
  TP: 5.3 g/dL
  gamma-GTP: 1.8 IU/L
100 mg/kg, 9 h, dose level Low
  TERMINAL_BW: 207.3 g
  APTT: 17 s
  Bas: 0%
  Eos: 1%
  Fbg: 218.2 mg/dL
  Hb: 13.5 g/dL
  Ht: 40.3%
  Lym: 70%
  MCH: 22 pg
  MCHC: 33.6%
  MCV: 65.4 fL
  Mono: 8.8%
  Neu: 20%
  PT: 11.7 s
  Plat: 125.1 x10_4/uL
  RBC: 617 x10_4/ul
  Ret: 8.5%
  WBC: 105.7 x10_2/uL
  KIDNEY_L: 0.9 g
  KIDNEY_R: 1 g
  KIDNEY_TOTAL: 1.9 g
  LIVER: 8.6 g
  A/G: 2.1
  ALP: 1541.8 IU/L
  ALT: 29 IU/L
  AST: 58.2 IU/L
  BUN: 11.6 mg/dL
  CRE: 0.6 mg/dL
  Ca: 10.6 mg/dL
  Cl: 104.4 meq/L
  DBIL: 0.034 mg/dL
  GLC: 189 mg/dL
  IP: 9.8 mg/dL
  K: 4.4 meq/L
  LDH: 90.2 IU/L
  Na: 142.8 meq/L
  PL: 127.2 mg/dL
  RALB: 3.8 g/dL
  TBIL: 1 mg/dL
  TC: 75.4 mg/dL
  TG: 34.2 mg/dL
  TP: 5.6 g/dL
  gamma-GTP: 1.2 IU/L
[5]
  TERMINAL_BW: 225.9 g
  APTT: 17.2 s
  Bas: 0%
  Eos: 1%
  Fbg: 209.8 mg/dL
  Hb: 13.4 g/dL
  Ht: 40.2%
  Lym: 73%
  MCH: 21.6 pg
  MCHC: 33.3%
  MCV: 64.9 fL
  Mono: 11.6%
  Neu: 14.4%
  PT: 11.8 s
  Plat: 115.2 x10_4/uL
  RBC: 619 x10_4/ul
  Ret: 7.9%
  WBC: 109.4 x10_2/uL
  KIDNEY_L: 1.1 g
  KIDNEY_R: 1.1 g
  KIDNEY_TOTAL: 2.2 g
  LIVER: 11.5 g
  A/G: 2.1
  ALP: 1133.2 IU/L
  ALT: 39.6 IU/L
  AST: 62.8 IU/L
  BUN: 16.8 mg/dL
  CRE: 0.6 mg/dL
  Ca: 11.3 mg/dL
  Cl: 104.2 meq/L
  DBIL: 0.024 mg/dL
  GLC: 204.8 mg/dL
  IP: 8 mg/dL
  K: 4.6 meq/L
  LDH: 127.8 IU/L
  Na: 141.2 meq/L
  PL: 147 mg/dL
  RALB: 3.7 g/dL
  TBIL: 0.4 mg/dL
  TC: 74.2 mg/dL
  TG: 86.4 mg/dL
  TP: 5.5 g/dL
  gamma-GTP: 1.2 IU/L
